Legend:
[1] = target: T1, heterodimeric receptor (T1R2/T1R3) (Homo sapiens, UniProt Q7RTX0+Q8TE23); assay: Competition binding with [14C]-sucrose as radioligand
T1 sequence (Q8TE23 20-839): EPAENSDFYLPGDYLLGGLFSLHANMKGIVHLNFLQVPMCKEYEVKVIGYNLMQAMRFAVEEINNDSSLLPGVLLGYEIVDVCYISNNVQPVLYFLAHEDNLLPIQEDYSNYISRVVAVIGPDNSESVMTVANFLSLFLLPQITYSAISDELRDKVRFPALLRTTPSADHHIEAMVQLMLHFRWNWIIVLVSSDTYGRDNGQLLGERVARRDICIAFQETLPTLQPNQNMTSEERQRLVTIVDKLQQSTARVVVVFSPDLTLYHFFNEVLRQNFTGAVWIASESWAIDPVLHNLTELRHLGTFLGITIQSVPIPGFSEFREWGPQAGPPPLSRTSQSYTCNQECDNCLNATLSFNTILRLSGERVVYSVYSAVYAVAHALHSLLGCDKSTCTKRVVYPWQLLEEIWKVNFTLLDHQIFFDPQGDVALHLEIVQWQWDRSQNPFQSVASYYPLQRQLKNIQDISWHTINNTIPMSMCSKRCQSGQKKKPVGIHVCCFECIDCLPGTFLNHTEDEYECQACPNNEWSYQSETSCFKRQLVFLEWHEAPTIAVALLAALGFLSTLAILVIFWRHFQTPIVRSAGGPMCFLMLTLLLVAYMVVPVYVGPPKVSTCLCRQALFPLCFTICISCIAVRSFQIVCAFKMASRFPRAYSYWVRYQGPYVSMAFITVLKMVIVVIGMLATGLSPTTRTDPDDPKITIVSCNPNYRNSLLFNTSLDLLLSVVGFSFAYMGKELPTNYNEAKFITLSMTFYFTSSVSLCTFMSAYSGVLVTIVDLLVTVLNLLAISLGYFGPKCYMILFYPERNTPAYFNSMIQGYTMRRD
T1 sequence (Q7RTX0 21-852): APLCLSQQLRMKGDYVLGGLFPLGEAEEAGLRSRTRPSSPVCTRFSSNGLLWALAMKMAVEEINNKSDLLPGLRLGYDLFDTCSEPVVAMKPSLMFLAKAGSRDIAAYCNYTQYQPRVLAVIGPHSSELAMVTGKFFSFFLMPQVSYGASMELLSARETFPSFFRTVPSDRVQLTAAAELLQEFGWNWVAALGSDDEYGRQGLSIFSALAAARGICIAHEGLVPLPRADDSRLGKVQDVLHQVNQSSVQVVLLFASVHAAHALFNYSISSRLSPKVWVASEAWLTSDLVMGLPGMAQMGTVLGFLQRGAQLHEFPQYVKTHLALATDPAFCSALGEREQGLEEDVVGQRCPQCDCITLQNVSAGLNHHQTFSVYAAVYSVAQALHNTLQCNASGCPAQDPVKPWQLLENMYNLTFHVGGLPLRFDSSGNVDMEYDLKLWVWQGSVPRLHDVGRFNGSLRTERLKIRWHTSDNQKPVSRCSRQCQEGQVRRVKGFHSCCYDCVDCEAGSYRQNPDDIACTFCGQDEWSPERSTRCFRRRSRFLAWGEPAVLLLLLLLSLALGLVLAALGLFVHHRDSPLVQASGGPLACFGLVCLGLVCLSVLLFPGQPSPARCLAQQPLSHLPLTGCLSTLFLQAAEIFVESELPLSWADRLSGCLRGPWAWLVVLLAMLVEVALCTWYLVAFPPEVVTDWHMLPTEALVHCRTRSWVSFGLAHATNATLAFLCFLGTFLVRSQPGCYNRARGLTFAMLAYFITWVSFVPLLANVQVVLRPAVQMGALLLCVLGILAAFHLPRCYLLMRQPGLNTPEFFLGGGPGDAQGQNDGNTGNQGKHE

[2] = target: T2, heterodimeric receptor (T1R2/T1R3), presumed VFD2 binding site (Homo sapiens, UniProt Q7RTX0+Q8TE23); assay: Competition binding with [3H]-Rebaudioside B as radioligand
T2 sequence (Q8TE23 20-839): T1 sequence (Q8TE23 20-839)
T2 sequence (Q7RTX0 21-852): T1 sequence (Q7RTX0 21-852)

[3] = target: T3, heterodimeric receptor (T1R2/T1R3), TMD2 binding site (Homo sapiens, UniProt Q7RTX0+Q8TE23); assay: Competition binding with [3H]-Perillartine as radioligand; details: radioligand [3H]-Perillartine
T3 sequence (Q8TE23 20-839): T1 sequence (Q8TE23 20-839)
T3 sequence (Q7RTX0 21-852): T1 sequence (Q7RTX0 21-852)

[4] = target: human T1R2/T1R3 sweet taste receptor; details: HEK293 stably expressing T1R2/T1R3, FLIPR calcium mobilization; cited from earlier work
[5] = target: T4, heterodimeric receptor (T1R2/T1R3), TMD3 binding site (Homo sapiens, UniProt Q7RTX0+Q8TE23); assay: Competition binding with [3H]-lactisole as radioligand; details: for Ki: radiolabeled ligand lactisole
T4 sequence (Q8TE23 20-839): T1 sequence (Q8TE23 20-839)
T4 sequence (Q7RTX0 21-852): T1 sequence (Q7RTX0 21-852)

COc1ccc(CCC(=O)c2c(O)cc(O[C@@H]3O[C@H](CO)[C@@H](O)[C@H](O)[C@H]3O[C@@H]3O[C@@H](C)[C@H](O)[C@@H](O)[C@H]3O)cc2O)cc1O [NHDC, Neohesperidin Dihydrochalcone]
Ki [1]: 13600 µM
Ki [2]: 63400 µM
Competitive inhibition with RebB ([2]; radioligand [3H]-Rebaudioside B): positive inhibition
Competitive inhibition with perillartine [3]: high levels of inhibition
EC50 [4]: 10.2 µM
Ki ([5]; Ki (mM), TMD3 binding, Table 4): 0.33 mM
Ki ([5]; Ki): 0.334 mM
Competitive inhibition with lactisole ([5]; radioligand [3H]-lactisole): inhibition

— publication PMC11489721 (Communications Chemistry, 2024)
